Results as given in US5985905A, “Indole derivatives for the treatment of osteoporosis” (priority 1996, dated 1999).

Key:
[1] = target: bafilomycin-sensitive ATPase in chicken osteoclasts; assay: Inhibition of bafilomycin-sensitive ATPase activity in purified osteoclast membrane vesicles (Pi release); assay type: biochemical; settings: chicken osteoclast membranes, read-out: IC50 (μM) APase assay
Procedure: Preparation of crude bone microsomes from calcium-starved egg-laying hens. Vesicles were prepared from medullar bone obtained from tibiae and femurs of egg-laying hens which were calcium-starved for at least 15 days. Briefly, bone fragments were scraped with a 24 scalpel blade, suspended in 40 ml of isolation medium (0.2 M sucrose, 50 mM KCl, 10 mM Hepes, 1 mM EGTA, 2 mM dithiotheitrol, pH 7.4) and filtered through a 100 μm pore size nylon mesh. The whole procedure was performed at 4° C. After homogenisation in a potter (20 strokes) in 40 ml of isolation medium an initial centrifugation (6,500×gmax ×20 min) was performed to remove mitochondria and lysosomes. […] The protein content was determined using a Biorad colourimetric kit according to Bradford [M. Bradford, Ana. […]
Inhibition of bafilomycin-sensitive ATPase activity was assessed in purified membrane vesicles by measuring the release of inorganic phosphate (Pi) during 30 min of incubation at 37° C. in a 96-well plate either in the presence or in the absence of bafilomycin Al. […] Absorbance at 650 nm was measured after 2 min using a microplate reader. Results are expressed as μmol (Pi)×mg protein^-1 ×hour^-1 and, for each experiment, represent the mean±sem of triplicates.

osteoclast proton pump = settings: avian osteoclast membrane vesicles, ATP-driven acidification; cited from earlier work
osteoclast cultures = settings: cited from earlier work

IC50 [1] [µM]	Structure (SMILES)	inhibition of proton transport (osteoclast proton pump)	inhibition of bone resorption (osteoclast cultures)
8.5	O=C1OCCO/C1=C\C=C\c1cc2cc(Cl)c(Cl)cc2[nH]1 [Example 1, (2Z,4E) 3-[3-(5,6-Dichloro-1H-indol-2-yl)-2-propenyliden]-1,4-dioxan-2-one]		
	CCN1C(=O)C=CC1=O [N-ethylmaleimide (NEM), N-ethylmaleimide]	inhibited	
	Cc1nc2c(OCc3ccccc3)cccn2c1CC#N [SCH 28080]	not inhibited	
	CO/C1=C\C(C)=C\[C@@H](C)[C@@H](O)[C@@H](C)C/C(C)=C/C=C/[C@H](OC)[C@@H]([C@@H](C)[C@@H](O)[C@H](C)[C@@]2(O)C[C@@H](O)[C@H](C)[C@@H](C(C)C)O2)OC1=O [bafilomycin A1]	inhibited	able to inhibit bone resorption
	COc1ccc2[nH]c([S+]([O-])Cc3ncc(C)c(OC)c3C)nc2c1 (centres unmarked) [omeprazole]	not inhibited	
	C[C@@H]1O[C@@H](O[C@H]2C[C@@H](O)[C@]3(CO)[C@H]4[C@H](O)C[C@]5(C)[C@@H](C6=CC(=O)OC6)CC[C@]5(O)[C@@H]4CC[C@]3(O)C2)[C@H](O)[C@H](O)[C@H]1O [ouabain]	not inhibited	
	[Na+].[Na+].[Na+].[O]=[V]([O-])([O-])[O-] [sodium orthovanadate]	not inhibited	
